For test [1], the system named is MIA-PaCa-2-DLK1 over-expressing cell line. The experiment in a line: In vitro cytotoxicity (cell proliferation inhibition, SRB dye), DLK1 over-expressing cells. The note with it: MIA-PaCa2 DLK1 positive. The format is cell-based, human. Here is the method: (§1) The cancer cell line cell proliferation inhibition activity of the drugs stated in Table 3 below and the ADCs prepared in <Embodiment 3> above was measured. For this purpose, commercially available human pancreatic cancer cell line MIA-PaCa2 (DLK1 negative or normal) and MIA-PaCa-2-DLK1 over-expressing cell line were used. As the drug, MMAF-OMe was used as the ADC, and the ADCs of Table 2 were used. In a 96-well plate, each well was seeded with 4,000 to 5,000 of the respective cancer cell lines for the 72-hour treatment group, 2,000 to 3,000 cells for the 96-hour treatment group, and 800 to 1,000 cells for the 168-hour treatment group. After culturing for 24 hours, they were treated with the drug and ADC at a concentration of 0.0015 to 10.0 nM (serially diluted threefold). 72, 96 and 168 hours later, respectively, the number of live cells was measured using SRB (Sulforhodamine B) dye.
On the technique in general: In SRB staining, fixed cells bind dye roughly in proportion to their protein.

For test [2], the system named is MIA-PaCa2 (DLK1 negative or normal). The experiment in a line: In vitro cytotoxicity (cell proliferation inhibition, SRB dye), DLK1-negative cells. It counts as cell-based, human. Here is the method: as §1
The subject of test [3] is cells where DLK1 is overexpressed. The note with it: confirmed in Korean Patent Application No. 10-2018-0107639; cited from earlier work.
Test [4] concerns the target T1, DLK1 over-expressed on MIA-PaCa-2 cells (UniProt P80370 24-383, limits assumed).
T1 sequence (looked up): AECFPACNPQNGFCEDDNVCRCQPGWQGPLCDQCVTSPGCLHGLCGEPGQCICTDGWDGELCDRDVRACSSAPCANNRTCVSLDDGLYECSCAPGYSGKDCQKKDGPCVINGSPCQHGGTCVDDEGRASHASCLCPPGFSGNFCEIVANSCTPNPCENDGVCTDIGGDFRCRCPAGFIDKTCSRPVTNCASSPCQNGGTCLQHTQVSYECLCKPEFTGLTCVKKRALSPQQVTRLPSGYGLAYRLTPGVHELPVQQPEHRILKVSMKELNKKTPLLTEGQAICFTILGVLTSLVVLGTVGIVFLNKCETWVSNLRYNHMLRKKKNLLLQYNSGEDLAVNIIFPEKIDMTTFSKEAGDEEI
In words: cell-based or functional assay.

The values that follow come from patent US20220339291A1, “ANTIBODY-DRUG CONJUGATES THAT TARGET DLK1 AND USES THEREOF” (LegoChem Biosciences, Inc., priority 2019, published 2022).

Positions count from the first letter of the chain named. Read-outs that look alike come from different tables or passages of the source. Non-standard residues stand in square brackets, D forms with d. Residues, ends and D or L forms follow the SMILES beside them. Dolaproine = CO[C@@H]([C@@H]1CCCN1)[C@@H](C)C(=O)O; Dil = CC[C@H](C)[C@H](NC)[C@@H](CC(=O)O)OC; NMeV = CN[C@H](C(=O)O)C(C)C

A word on the IC50: it is the concentration that inhibits the measured activity by half.

Take `CC[C@H](C)[C@@H]([C@@H](CC(=O)N1CCC[C@H]1[C@H](OC)[C@@H](C)C(=O)N[C@@H](Cc1ccccc1)C(=O)OC)OC)N(C)C(=O)[C@@H](NC(=O)[C@@H](NC)C(C)C)C(C)C` [MMAF-OMe] (H-[NMeV]V[Dil][Dolaproine]F-OMe): the IC50 in test [1] (72 hr treatment, read-out: IC50 MIA-PaCa2-DLK1 positive 72 hr) stood at 0.3 nM; in test [1] (96 h treatment, read-out: IC50 MIA-PaCa2-DLK1 positive 96 h), 0.13 nM; in test [1] (168 hr treatment, read-out: IC50 MIA-PaCa2-DLK1 positive 168 hr), 0.06 nM; in test [2] (72 hr treatment, read-out: IC50 MIA-PaCa2-DLK1 negative 72 hr), 0.41 nM; in test [2] (96 h treatment, read-out: IC50 MIA-PaCa2-DLK1 negative 96 h), 0.12 nM; in test [2] (168 hr treatment, read-out: IC50 MIA-PaCa2-DLK1 negative 168 hr) it was 0.12 nM.

B1: 27F7: anti-DLK1 human monoclonal antibody, heavy chain SEQ ID NO. 109, light chain SEQ ID NO. 110 (antibody, V domains shown)
VH: QMQLVESGGGLVKPGGSLTLSCDATGFNFGSYYMNWVRQAPGKGLEWLAHISSTGRTIYYADSVKGRFTISRDNAKSSLDLQMNSLRAEDTAVYYCARDQGYPFGMDVWGHGTTVTVSS
VL: QLVLTQPSSVSGAPGQRVTISCTGSSSNIGAGYDVDWYQQLPGTAPKLLIYGNTNRPSGVPDRFSGSKSGTSASLAITGLQAEDDSDYYCQSYDSSLSAWVFGGGTKLTVL
Turning to B1, in test [3], the “binding to cells where DLK1 is overexpressed” value (shortened to “binding”) is recorded as “capable of binding to cells where DLK1 is overexpressed”.

B2: ADC6 (18A5 conjugated to Compound 6) (other)
VH: QVQLVQSGGAVVQPGHSLRLSCEASGFKFKDYGMHWVRQAPGKGLEWLAVISHDGRNKNYADSVKGRLTISRDNSKNTLSFQMNSLRAEDTAVYYCVRDWSYAFDIWGQGTLVTVSS
VL: DIQMTQSPSFLSASVGDRVNITCRASQDISRRLAWYQQKPGKAPKLLIYGAASLQSAVASRFSGSGSGTEFTLTISSLQPEDFANYYCQQIYTTPLTFGGGTKVEIK
On to B2, for which, in test [4], the “IC50 (nM), cell proliferation inhibition (SRB), MIA-PaCa2-DLK1 positive, 168 hr” value turned out to be 0.21 nM.

B3: 18A5: anti-DLK1 human monoclonal antibody, heavy chain SEQ ID NO. 101, light chain SEQ ID NO. 102 (antibody, V domains shown)
VH: B2 VH
VL: B2 VL
B3: the “binding” value in test [3] is on record as “capable of binding to cells where DLK1 is overexpressed”.

B4: 18A5_LS_1A10: 18A5 mutant anti-DLK1 antibody, heavy chain SEQ ID NO. 101, light chain SEQ ID NO. 126 (antibody, V domains shown)
VH: B2 VH
VL: DIQMTQSPSSLSASLGDRVTITCRASQGISSALAWYQQKPGKAPKLLIYAASSLQSGVPSRFSGSGSGTDFTLTINSLQPEDFATYYCQQSYTTPLTFGGGTKVEIK
Take B4: the “binding” value in test [3] is reported as “capable of binding to cells where DLK1 is overexpressed”.

B5: 18A5_AM_1A12: 18A5 mutant anti-DLK1 antibody, heavy chain SEQ ID NO. 127, light chain SEQ ID NO. 128 (antibody, V domains shown)
VH: B2 VH with A10G, H16G, E23A
VL: DIQMTQSPSFLSASVGDRVTITCRASHDISSSLAWYQQKSGKAPKLLIYSASNLKSGVPSRFSGSGSGTDFSLTISSLQPEDFATYYCQQSYTTVLTFGGGTKLEIK
On to B5, for which the “binding” value in test [3] was “capable of binding to cells where DLK1 is overexpressed”.
